In brackets after ≈: the same amount, converted by molar mass.
How the values were obtained:
Type in all cases: physicochemical
[1] = Solubility of Compound A in F57, Method 6: Form B seeds added to GMP batch; details: F57 emulsion (GMP batch), 2 °C, thermodynamic from solid; 2-8° C.; read-out: API solubility in F57
Text: (§1) To investigate the causes of precipitation and determine the Compound A solubility in F57 vehicle, the following seven (7) methods were applied to accurately determine solubility of Compound A in F57: • Method 1: Formulate Compound A in F57 at varied concentrations using GMP grade of Compound A and excipients with the regular process • Method 2: Formulate Compound A in F57 by introducing Compound A into a pre-formed F57 vehicle • Method 3: Observe Compound A in the previously made batches which already had extended incubation • Method 4: Conduct “top-down” and a “bottom-up” solubility studies in F57 vehicle • Method 5: Agitate Compound A GMP batch of F57 to promote the dissolution-precipitation equilibrium • Method 6: Add extra Form B seeds to Compound A GMP batch of F57 to promote Compound A crystal growth and precipitation • Method 7: Add Form B seeds to the samples made in method 1 to promote Compound A crystal growth and precipitation
For solubility determination, a F57 sample (usually about 0.5 mL) was filtered through a 0.22 μm centrifuge filter (Costar Spin-X®+, P/N8169), the filtrate (free of any solid particle) was collected, diluted with isopropanol, and tested for Compound A concentration using the following HPLC method. […]

[2] = Solubility of Compound A in F57, summary of all 7 methods; details: F57, thermodynamic from solid, read-out: Measured Solubility
Text: The term “solubility” used herein is defined as Compound A concentration where Compound A has reached a dissolution-precipitation equilibrium in F57 at a selected temperature. […] On the other hand, if Compound A concentration is higher than the solubility, Compound A is expected to precipitate over time.
as §1
For solubility determination, a F57 sample (usually about 0.5 mL) was filtered through a 0.22 μm centrifuge filter (Costar Spin-X®+, P/N8169), the filtrate (free of any solid particle) was collected, diluted with isopropanol, and tested for Compound A concentration using the following HPLC method. Dissolution-precipitation equilibrium is reached once the measured filtrate concentration is constant, and that concentration can be regarded as the solubility.
Table 40 summarizes the general conditions used in the seven methods to promote the dissolution-precipitation equilibrium. Detailed procedures are described in each method section.
The general observation and findings by all 7 methods are summarized in the table 50, according to the detailed observation and discussion pertaining to each method.

[3] = Initial formulations: Compound A saturation assay (HPLC) and appearance in template emulsion vehicles; details: emulsion composition containing ≥10% egg lecithin, aqueous with cosolvent or surfactant or cyclodextrin, thermodynamic from solid
Experimental: Ten compositions were prepared using various template compositions, containing lecithin, soybean oil (SBO) or medium chain triglycerides (MCT), glycerin or sucrose (non-ionic tonicity agent), edetate disodium di-hydrate (EDTA, chelating agent) in deionized water. Compound A (Form A) was added and agitated to reach solubility equilibrium at ambient room temperature. Each formulation was prepared in the following steps: Compound A (5 mg) was dispersed in each template vehicle. The formulation were then homogenized and at room temperature for >24 h and then passed sample through 0.45 μm filter for analysis (HPLC).

[4] = Emulsion stability 1 week at 40° C. (appearance, assay, Z-Ave, PFAT5); details: emulsions at 2-8° C. and after 8 days at 40° C.
Experimental: Procedure: • Prepared all vehicles by mixing lipid and aqueous phase ingredients and homogenized. • Added Compound A (Form A) at 0.3% concentration in each vehicle. • Homogenized and mixed overnight until uniform or achieved equilibrium. • Filtered emulsion through 0.45 μm Nylon membrane filter. • Evaluated appearance, drug concentration by HPLC assay, average droplet size and PFAT5. • Selected the top 5-10 formulations achieving acceptance criteria initially. • Placed at 40° C. for up to 2 weeks to monitor emulsion stability. • Selected the top 3-5 formulations meeting the proposed requirements after 1-2 weeks at 40° C.
Methods: • Appearance: Record visual observation • Z-ave (nm): Measure mean oil droplet size by ZetaSizer (Malvern Instrument). Dilute 50 μL sample with 950 μL DI water at room temperature • Assay (%): Use the current HPLC method • Spin-X: Pass 0.5 mL emulsion through CoStar® Spin-X 0.2 μm Nylon filter (0.7 cm^2 surface area) at 3,144 G-force centrifuge for 60 sec at ambient room temperature. Evaluate completeness of emulsion passing through the filter.

[5] = Stability of Formulation F-9 (small scale), 2 weeks at 2-8° C. and 25° C.; details: F-9 emulsion, after 2 weeks at 2-8° C. and 25° C.
Experimental: Procedures: Compound A (Form A) was added to F-9 vehicle containing MCT/Egg/lecithin/Sucrose/EDTA in a plastic tube. The formulation was mixed until uniform and complete drug dissolution. The emulsion was sterilized through 0.2 μm membrane filter. The samples were placed at 2-8° C. and 25° C. for stability evaluation for 2 weeks. The samples were tested for appearance, pH, Compound A assay and purity by HPLC, mean droplet size and globule size distribution in lipid injectable emulsions (USP<729>) and the results are shown in Table 17.

solubility [1]: 1800 to 1900 µg/mL (≈ 4.27 to 4.5 mM)
solubility ([2]; in F57, Method 2, Equilibrium reached): 1800 to 1900 µg/mL (≈ 4.27 to 4.5 mM)
solubility ([2]; in F57, Method 4, Equilibrium reached): 1800 µg/mL (≈ 4.27 mM)
solubility ([2]; in F57, Method 5, Equilibrium reached): 1800 to 1900 µg/mL (≈ 4.27 to 4.5 mM)
solubility ([2]; in F57, Method 6, Equilibrium reached): 1800 to 1900 µg/mL (≈ 4.27 to 4.5 mM)
solubility ([2]; in F57, Method 7, Equilibrium reached): 1800 to 1900 µg/mL (≈ 4.27 to 4.5 mM)
solubility [3]: ≥ 2400 µg/mL
% purity on stability [4]: 99.9%
appearance and HPLC assay on stability [5]: remained unchanged
SMILES: Cc1cccc(F)c1C(=O)Nc1cnc(-c2cc3c(cc2Cl)OC(F)(F)O3)cn1 [Compound A, N-(5-(6-chloro-2,2-difluorobenzo[d][1,3]dioxol-5-yl)pyrazin-2-yl)-2-fluoro-6-methylbenzamide]
